We go through three molecules from patent US20100028259A1, “USE OF ORGANIC CATION TRANSPORTERS FOR CANCER DIAGNOSIS AND THERAPY” (The Regents of the University of California, priority 2006, published 2010).

The subject of data set [1] is MDCK-hOCT1 cells. Description: Platinum-DNA adduct formation in MDCK-hOCT1 cells. The class given is cell-based, canine. To be noted: 1 μM, PB—SO4, 25 min. On the procedure: (§1) After incubation at 37° C. and 5% CO2 for 2 hours, the cells were washed with ice-cold PBS three times and harvested. The genomic DNA was isolated from the cells and the platinum content associated with DNA was determined by ICP-MS and normalized for DNA content. Data are expressed as mean±SD from a typical experiment performed in triplicate. Two independent experiments were conducted and similar results were obtained.
(§2) After incubation, the cells were washed with ice-cold PBS three times and harvested. Genomic DNA was isolated from the harvested cells and the DNA-associated platinum content was determined by ICP-MS and normalized for the DNA content. Data are expressed as mean±SD of three measurements.
(§3) The platinum content associated with genomic DNA was determined as described in Samimi et al., Clin. Cancer Res., 10:4661-4669 (2004) with some modifications. Briefly, the cells were grown in 100 mm×20 mm dishes in the culture medium without any antibiotics to over 90% confluence. For HEK 293 cells, poly-D-lysine coated dishes were used. Then, the cells were incubated in the culture medium containing the specified concentrations of the platinum-based compounds at 37° C. in 5% CO2 for 2 hours (or 25 min as specified). In some experiments, phosphate buffer (PB: 1.06 mM KH2PO4, 2.97 mM Na2HPO4, pH 7.4) containing 155 mM NaCl (PB—Cl buffer) or 103 mM Na2SO4 (PB—SO4 buffer) was used instead of the culture medium as specified. For the OCT inhibitor study, the incubation medium (buffer) also contained disopyramide or cimetidine). If PB—Cl or PB—SO4 buffer was used, the cells were washed with the same buffer once before drug incubation. After incubation, the cells were washed with ice-cold PBS, scraped, and pelleted. Genomic DNA was isolated from the cell pellets using the Wizard® Genomic DNA Purification Kit (Promega, Madison, Wis.) following the manufacturer's instructions. Briefly, the cells were lysed with Nuclei Lysis Solution. After RNA digestion and protein precipitation, the lysates were centrifuged and the resulting supernatant was aliquoted. The genomic DNA prepared from two different aliquots of the supernatant was used for platinum and DNA content determination, respectively. For the determination of platinum, the DNA samples were treated with 70% nitric acid at 65° C. and diluted in the same way as described above. The platinum content was analyzed using ICP-MS and the DNA content was measured by absorption spectroscopy.

Data set [2] has as its system MDCK-MOCK cells. The data set is described as follows: Platinum-DNA adduct formation in MDCK-MOCK cells. The class given is cell-based, canine. To be noted: 1 μM, PB—SO4, 25 min. On the procedure: as §1, §2, §3
A short description of data set [3]: pKa values and species distribution of aquated oxaliplatin in incubation buffer. The class given is physicochemical. The following applies: PB—SO4 buffer, pH 7.4, calculated from pKa values.
For data set [4], the system named is HEK-hOCT2 cells. Description: MTT drug sensitivity assay in HEK-hOCT2 cells. The following applies: same test conditions as oxaliplatin MTT assay in HEK cells. The class given is cell-based, human. On the procedure: (§4) Cytotoxicity of the platinum-based compounds was measured by MTT (thiazolyl blue tetrazolium bromide) assay. Cells were seeded in 100 μl of the culture medium without any antibiotics in 96-well plates at a predetermined cell density. For HEK 293 cells, poly-D-lysine coated plates were used. […] For the OCT inhibitor studies, the inhibitors (i.e., disopyramide or cimetidine) were added to the medium at a specified concentration immediately before the addition of the platinum-based compounds. After incubation for a specified time period, the drug-containing medium was replaced with fresh, drug-free medium and the incubation was continued for a total of 72 hours (start from the addition of platinum-based compounds). Then, the MTT assay was performed similarly as described in Alley et al., Cancer Res., 48:589-601 (1988). […] The maximal cell growth was the cell growth in the medium without any platinum-based compounds; C is the concentration of the platinum-based compound, and γ is the slope factor.
(§5) Briefly, the cells were seeded in 96-well plates at a density of 5,000 cells/well for the transfected MDCK cells or 12,000 cells/well for the transfected HEK 293 cells. The platinum-based drugs were added on the following day. After the specified time periods of drug exposure, the drug-containing medium was replaced with fresh, drug-free medium, and the incubation was continued for a total of 72 hours (start from the time when the drug was added). After incubation, the cell growth was determined by an MTT assay. Data are expressed as mean±SD from 3 to 6 independent experiments with each performed in quadruplicate. The resistance factor (RF) was defined as the ratio of the mean IC50 value in the MOCK cells to that in the OCT-transfected cells.
(Tetrazolium dyes change colour on reduction, which living cells bring about.)

The target of data set [5] is human OCT2 (Homo sapiens, UniProt O15244). The following applies: inhibitor 1.5 mM. On the procedure:
(§6) (A) The expression of human OCT1, OCT2, or OCT3 was determined in the cell lines stably transfected with human OCTs (MDCK-hOCT1, HEK-hOCT2, or HEK-hOCT3) or the corresponding empty vectors (MOCK cells) by RT-PCR as described in Example 1. The dog and human GAPDH were used as the expression control for the transfected MDCK and HEK 293 cells, respectively. Lanes 1-6: MDCK-MOCK, MDCK-hOCT1, HEK-MOCK, HEK-hOCT2, HEK-MOCK, and HEK-hOCT3. (B) The cellular uptake of model substrates (TEA for human OCT1 and OCT2; MPP^+ for human OCT3) was determined in OCT-transfected cells (solid bars) and in the corresponding MOCK cells (open bars). Disopyramide (120 μM) was used as an inhibitor for human OCT1 and cimetidine (1.5 mM) was used as an inhibitor for human OCT2 and OCT3. Data are expressed as mean±SD of six measurements.
(§7) MDCK or HEK 293 cells were grown in 24-well plates to >90% confluence in the culture medium without any antibiotics. The poly-D-lysine coated plates were used for HEK 293 cells. The cells were washed with 1×PBS first and then incubated in the uptake buffer (1×PBS) containing 10 μM ^14C-TEA or 2 μM ^3H-MPP^+ as specified. For the OCT inhibitor studies, the indicated OCT inhibitor (i.e., disopyramide or cimetidine) was added to the uptake buffer at specified concentration together with the radioactive substrate. […]

In data set [6] the target is human OCT3 (Homo sapiens, UniProt O75751). To be noted: inhibitor 1.5 mM. On the procedure:
as §6, §7

Data set [7] deals with MDCK-hOCT1 cells. Description: MTT drug sensitivity assay in MDCK-hOCT1 cells. The class given is cell-based, canine. To be noted: same test conditions as oxaliplatin MTT assay in MDCK cells. On the procedure:
as §4, §5
Briefly, MDCK cells were seeded at a density of 5,000 cells/well in 96-well plates and exposed to the test compounds for 7 hours on the following day. After incubation for a total of 72 hours, the cell growth was determined by an MTT assay. The data for carboplatin was taken from Table 1 and was not determined simultaneously with the other compounds. The resistance factor (RF) was defined as the ratio of the mean IC50 value in MDCK-MOCK cells to that in MDCK-hOCT1 cells. Data are expressed as mean±SD from six measurements, and each measurement was performed in quadruplicate.

Data set [8] has as its target T1, human OCT1 (Homo sapiens, UniProt O15245).
T1 construct: stably transfected with the full length human OCT1 cDNA (MDCK-hOCT1); expressed in transfected cells
T1 sequence (O15245 1-554): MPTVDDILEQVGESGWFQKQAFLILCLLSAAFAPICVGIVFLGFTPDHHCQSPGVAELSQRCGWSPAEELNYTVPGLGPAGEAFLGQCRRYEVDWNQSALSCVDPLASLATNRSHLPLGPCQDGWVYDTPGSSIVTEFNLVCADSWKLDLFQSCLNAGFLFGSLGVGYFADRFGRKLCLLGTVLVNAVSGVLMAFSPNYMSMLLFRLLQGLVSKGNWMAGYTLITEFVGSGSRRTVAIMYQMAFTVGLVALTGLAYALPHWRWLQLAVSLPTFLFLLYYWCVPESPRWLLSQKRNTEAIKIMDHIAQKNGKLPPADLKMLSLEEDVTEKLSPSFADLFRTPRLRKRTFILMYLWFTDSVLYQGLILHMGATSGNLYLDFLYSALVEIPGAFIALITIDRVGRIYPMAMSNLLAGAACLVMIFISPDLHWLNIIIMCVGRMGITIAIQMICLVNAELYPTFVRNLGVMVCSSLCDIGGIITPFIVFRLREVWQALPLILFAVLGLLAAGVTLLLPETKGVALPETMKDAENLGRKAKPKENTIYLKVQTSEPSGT
The data set is described as follows: Cellular uptake of TEA in MDCK-hOCT1 cells, OCT inhibitor. The class given is cell-based, canine. The following applies: inhibitor 120 μM. On the procedure: as §6, §7

Sequence of human OCT3 (O75751 whole entry): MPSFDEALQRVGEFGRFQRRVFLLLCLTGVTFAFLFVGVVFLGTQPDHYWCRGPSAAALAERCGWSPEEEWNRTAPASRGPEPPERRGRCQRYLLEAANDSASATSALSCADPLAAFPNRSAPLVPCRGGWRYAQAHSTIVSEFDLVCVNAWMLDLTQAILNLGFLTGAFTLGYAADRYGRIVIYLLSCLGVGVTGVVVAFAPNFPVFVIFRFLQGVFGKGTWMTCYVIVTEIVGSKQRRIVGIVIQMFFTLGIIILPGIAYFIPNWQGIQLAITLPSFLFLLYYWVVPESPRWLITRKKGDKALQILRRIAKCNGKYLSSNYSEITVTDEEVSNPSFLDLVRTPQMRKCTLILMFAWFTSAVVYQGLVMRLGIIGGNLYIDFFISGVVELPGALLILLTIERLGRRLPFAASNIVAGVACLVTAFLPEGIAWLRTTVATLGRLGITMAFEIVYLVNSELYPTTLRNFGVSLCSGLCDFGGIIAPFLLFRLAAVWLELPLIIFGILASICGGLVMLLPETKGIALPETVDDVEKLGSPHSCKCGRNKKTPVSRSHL
Sequence of human OCT2 (O15244 whole entry): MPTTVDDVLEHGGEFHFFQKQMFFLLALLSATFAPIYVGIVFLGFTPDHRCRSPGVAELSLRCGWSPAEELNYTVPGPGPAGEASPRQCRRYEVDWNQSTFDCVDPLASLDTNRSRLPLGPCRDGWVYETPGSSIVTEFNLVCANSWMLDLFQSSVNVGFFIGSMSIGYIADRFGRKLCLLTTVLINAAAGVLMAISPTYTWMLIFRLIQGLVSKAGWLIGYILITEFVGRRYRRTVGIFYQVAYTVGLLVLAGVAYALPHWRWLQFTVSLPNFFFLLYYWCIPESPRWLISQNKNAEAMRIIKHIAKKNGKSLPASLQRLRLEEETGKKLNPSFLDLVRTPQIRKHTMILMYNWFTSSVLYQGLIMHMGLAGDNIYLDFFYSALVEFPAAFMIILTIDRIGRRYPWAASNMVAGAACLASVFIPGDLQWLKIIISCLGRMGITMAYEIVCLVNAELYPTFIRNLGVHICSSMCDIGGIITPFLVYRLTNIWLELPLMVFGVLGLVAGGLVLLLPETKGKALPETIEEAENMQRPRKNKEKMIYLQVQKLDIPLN

On to `NC1CCCCC1N.O.O.[Pt+2]` [[Pt(R,R-DACH)(H2O)2]^2+], for which, in data set [1], the “DNA-associated platinum level in MDCK-hOCT1” value is 0.0139±0.0020 pmol/μg DNA and the “rb in MDCK-hOCT1” value is listed as 4.59±0.66×10^−6. In data set [2], the “DNA-associated platinum level in MDCK-MOCK” value turned out to be 0.0142±0.0028 pmol/μg DNA and the “rb in MDCK-MOCK” value is listed as 4.69±0.92×10^−6. In addition, in data set [3], the “percentage of aqua/hydroxo species” value is 17.1% and the “percentage of diaqua species” value was 82.8%.
On to `CN/C(=N/CCSCc1nc[nH]c1C)NC#N` [cimetidine], for which, in data set [4], the “cytotoxicity of the OCT inhibitor itself (no cytotoxicity up to a concentration of)” value was > 5 mM. Also, the “effect on uptake of TEA in HEK-hOCT2” value in data set [5] is listed as “substantially decreased”. In addition, in data set [6], the “effect on uptake of MPP+ in HEK-hOCT3” value is reported as “substantially decreased”.
For the molecule `CC(C)N(CCC(C(N)=O)(c1ccccc1)c1ccccn1)C(C)C` (centres unmarked) [disopyramide], in data set [7], the “cytotoxicity of the OCT inhibitor itself (no cytotoxicity up to a concentration of)” value is > 400 µM. Moreover, the “effect on uptake of TEA in MDCK-hOCT1” value in data set [8] is “substantially decreased”.
